Measured values as given in ChEMBL document CHEMBL1129099, “Non-peptide fibrinogen receptor antagonists based upon a 4-substituted piperidine scaffold” (Bioorg Med Chem Lett, 1996).
pIC50: −log10 of the molar value.

Legend:
Homo sapiens = organism: Homo sapiens; assay: Evaluated for human platelet aggregation.; type: functional
[1] = target: Integrin alpha-IIb/beta-3 (Homo sapiens, UniProt P05106+P08514); assay: Inhibition of [125I]- Fg binding to fibrinogen receptor of activated human platelets
Integrin alpha-IIb/beta-3, sequence (P05106 27-788 limits assumed): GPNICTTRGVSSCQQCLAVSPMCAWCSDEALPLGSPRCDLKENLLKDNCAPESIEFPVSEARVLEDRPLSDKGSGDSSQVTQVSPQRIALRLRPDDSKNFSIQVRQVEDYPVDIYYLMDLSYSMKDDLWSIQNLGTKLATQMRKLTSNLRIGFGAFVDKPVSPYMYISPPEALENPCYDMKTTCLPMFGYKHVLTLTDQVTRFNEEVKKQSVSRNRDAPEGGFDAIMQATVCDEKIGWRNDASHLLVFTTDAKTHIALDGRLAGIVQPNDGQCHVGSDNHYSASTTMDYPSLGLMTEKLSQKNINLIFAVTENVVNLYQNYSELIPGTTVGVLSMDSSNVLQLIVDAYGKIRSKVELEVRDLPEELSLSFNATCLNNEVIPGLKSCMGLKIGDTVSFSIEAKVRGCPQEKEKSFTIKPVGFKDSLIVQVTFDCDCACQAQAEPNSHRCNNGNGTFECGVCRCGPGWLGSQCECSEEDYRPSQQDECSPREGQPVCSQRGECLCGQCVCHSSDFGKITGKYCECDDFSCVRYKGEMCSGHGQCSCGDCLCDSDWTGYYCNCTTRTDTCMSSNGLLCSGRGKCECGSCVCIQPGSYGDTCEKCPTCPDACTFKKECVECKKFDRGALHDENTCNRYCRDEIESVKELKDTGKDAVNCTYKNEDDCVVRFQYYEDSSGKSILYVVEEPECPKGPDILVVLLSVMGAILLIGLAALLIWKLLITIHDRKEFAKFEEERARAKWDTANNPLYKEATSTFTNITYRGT
Integrin alpha-IIb/beta-3, sequence (P08514 32-887 limits assumed): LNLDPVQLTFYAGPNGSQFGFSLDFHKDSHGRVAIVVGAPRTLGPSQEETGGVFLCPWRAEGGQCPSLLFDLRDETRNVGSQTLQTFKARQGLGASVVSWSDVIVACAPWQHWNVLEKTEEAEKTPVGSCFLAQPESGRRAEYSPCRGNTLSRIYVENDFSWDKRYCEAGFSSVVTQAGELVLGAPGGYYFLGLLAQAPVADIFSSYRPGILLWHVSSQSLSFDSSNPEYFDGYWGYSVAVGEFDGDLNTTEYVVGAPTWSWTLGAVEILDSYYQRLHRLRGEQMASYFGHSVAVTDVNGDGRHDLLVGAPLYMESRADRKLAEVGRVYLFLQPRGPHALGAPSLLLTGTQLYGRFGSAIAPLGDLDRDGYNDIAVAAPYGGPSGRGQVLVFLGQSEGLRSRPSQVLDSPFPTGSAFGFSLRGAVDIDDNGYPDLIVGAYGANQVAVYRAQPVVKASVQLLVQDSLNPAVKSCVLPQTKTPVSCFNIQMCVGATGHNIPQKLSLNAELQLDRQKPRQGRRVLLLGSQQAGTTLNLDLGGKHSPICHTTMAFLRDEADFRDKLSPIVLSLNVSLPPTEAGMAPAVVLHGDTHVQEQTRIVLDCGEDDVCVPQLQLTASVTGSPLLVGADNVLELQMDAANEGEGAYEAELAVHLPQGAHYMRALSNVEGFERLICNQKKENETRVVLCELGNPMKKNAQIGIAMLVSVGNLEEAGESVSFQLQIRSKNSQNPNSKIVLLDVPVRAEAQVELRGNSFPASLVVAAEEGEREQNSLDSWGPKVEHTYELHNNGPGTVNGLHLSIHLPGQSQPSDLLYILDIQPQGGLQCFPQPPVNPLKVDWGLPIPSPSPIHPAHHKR
Integrin alpha-IIb/beta-3, sequence (P08514 891-1039 limits assumed): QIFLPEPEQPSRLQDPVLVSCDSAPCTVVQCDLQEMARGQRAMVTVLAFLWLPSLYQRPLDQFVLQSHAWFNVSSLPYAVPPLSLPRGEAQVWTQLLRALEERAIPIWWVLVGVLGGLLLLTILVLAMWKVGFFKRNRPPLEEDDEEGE

**Q.** How did the pIC50 (Homo sapiens) turn out when `O=C(O)[C@H](CCC(=O)N1CCC(CCCC2CCNCC2)CC1)NS(=O)(=O)c1ccc(-c2ccccc2)cc1` was run?
**A.** Its pIC50 is 7.52.

**Q.** And the pIC50 [1]?
**A.** The pIC50 was 7.52.

**Q.** `O=C(O)[C@H](CCC(=O)N1CCC(CCCC2CCNCC2)CC1)NS(=O)(=O)c1ccccc1` was tested. Which pIC50 [1] did it give?
**A.** Its pIC50 is 7.52.

**Q.** `O=C(O)CCCCC(=O)N1CCC(CCCC2CCNCC2)CC1` was tested. Which pIC50 [1] did it give?
**A.** Its pIC50 is 5.17.

**Q.** `CCCCC(=O)N[C@@H](CCC(=O)N1CCC(CCCC2CCNCC2)CC1)C(=O)O` was tested. Which pIC50 [1] did it give?
**A.** The pIC50 was 6.60.

**Q.** Which results are given for `O=C(O)[C@H](CCC(=O)N1CCC(CCCC2CCNCC2)CC1)NS(=O)(=O)Cc1ccccc1`?
**A.** pIC50 (Homo sapiens): 7.70; pIC50 [1]: 7.70

**Q.** With `CCCCS(=O)(=O)NC(CC(=O)O)CC(=O)N1CCC(CCCC2CCNCC2)CC1` (centres undefined) as the compound, how does the pIC50 [1] read?
**A.** Its pIC50 is 6.02.

**Q.** `O=C(O)[C@H](CCC(=O)N1CCC(CCCC2CCNCC2)CC1)NS(=O)(=O)c1cccc2ccccc12` was tested. Which pIC50 (Homo sapiens) did it give?
**A.** Its pIC50 is 8.00.

**Q.** What about the pIC50 [1] of the same compound?
**A.** Its pIC50 is 7.40.

**Q.** `CCCCS(=O)(=O)N[C@@H](CCC(=O)O)C(=O)N1CCC(CCCC2CCNCC2)CC1` was tested. Which pIC50 [1] did it give?
**A.** The pIC50 was < 4.60.

**Q.** `O=C(O)CCCC(=O)N1CCC(CCCC2CCNCC2)CC1` was tested. Which pIC50 [1] did it give?
**A.** The pIC50 was 5.52.

**Q.** Which results are given for `CCCCCCCCS(=O)(=O)N[C@@H](CCC(=O)N1CCC(CCCC2CCNCC2)CC1)C(=O)O`?
**A.** pIC50 (Homo sapiens): 6.89; pIC50 [1]: 7.15

**Q.** `CCCCCN[C@@H](CCC(=O)N1CCC(CCCC2CCNCC2)CC1)C(=O)O` was tested. Which pIC50 [1] did it give?
**A.** Its pIC50 is 5.08.

**Q.** How did the pIC50 [1] turn out when `O=C(O)CCC(=O)N1CCC(CCCC2CCNCC2)CC1` was run?
**A.** Its pIC50 is < 4.60.

**Q.** With `CCCCS(=O)(=O)N[C@@H](CCC(=O)N1CCC(CCCC2CCNCC2)CC1)C(=O)O` as the compound, how does the pIC50 (Homo sapiens) read?
**A.** Its pIC50 is 7.15.

**Q.** What about the pIC50 [1] of the same compound?
**A.** The pIC50 was 6.96.

**Q.** How did the pIC50 [1] turn out when `CCCCS(=O)(=O)N[C@H](CCC(=O)O)C(=O)N1CCC(CCCC2CCNCC2)CC1` was run?
**A.** Its pIC50 is 6.89.

**Q.** How did the pIC50 (Homo sapiens) turn out when `O=C(O)[C@H](CCC(=O)N1CCC(CCCC2CCNCC2)CC1)NS(=O)(=O)c1ccc2ccccc2c1` was run?
**A.** The pIC50 was 8.00.

**Q.** And the pIC50 [1]?
**A.** The pIC50 was 7.40.

**Q.** With `CCCCS(=O)(=O)N[C@H](CCC(=O)N1CCC(CCCC2CCNCC2)CC1)C(=O)O` as the compound, how does the pIC50 [1] read?
**A.** The pIC50 was < 4.60.

**Q.** What does the source list for `CCCc1ccc(S(=O)(=O)N[C@@H](CCC(=O)N2CCC(CCCC3CCNCC3)CC2)C(=O)O)cc1`?
**A.** pIC50 (Homo sapiens): 7.70; pIC50 [1]: 8.00
